Measurements from PubChem BioAssay (NCI).
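Five compound concentrations were applied to cells in 96-well plates for 48 hours; endpoints were derived by simple linear interpolation of the resulting dose-response curve. Here, GI50 denotes the concentration required for 50% inhibition of growth. The concentration for full growth arrest is given as TGI.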

Tests used:
Test in all cases: growth of human tumour cells (NCI), 48 h
[1] = test system: OVCAR-5 ovarian
[2] = test system: M14 melanoma
[3] = test system: NCI-H460 lung
[4] = test system: SK-MEL-2 melanoma
[5] = test system: DU-145 prostate
[6] = test system: NCI-H23 lung
[7] = test system: HCT-116 colon
[8] = test system: HCT-15 colon
[9] = test system: HOP-62 NSCLC
[10] = test system: ACHN renal

| SMILES | TGI [1] | TGI [2] | TGI [3] | TGI [4] | TGI [5] | TGI [6] | TGI [7] | TGI [8] | TGI [9] | TGI [10] | GI50 [1] | GI50 [2] | GI50 [3] | GI50 [4] | GI50 [5] | GI50 [6] | GI50 [7] | GI50 [8] | GI50 [9] | GI50 [10] |
| --- | --- | --- | --- | --- | --- | --- | --- | --- | --- | --- | --- | --- | --- | --- | --- | --- | --- | --- | --- | --- |
| COc1ccc(CNc2nc3cc(C(F)(F)F)ccc3nc2C(=O)O)cc1 | 94.7 µM | 58.1 µM | > 100 µM | 62.2 µM | > 100 µM | 76.3 µM | 41 µM | 69.3 µM | 55.5 µM | > 100 µM |  |  |  |  |  |  |  |  |  |  |
| O=C(CC(=O)N1N=C(N(c2ccccc2)c2ccccc2)CC1c1ccccc1)Nc1cccc(Cl)c1 (stereo not given) | > 100 µM | > 100 µM | > 100 µM | > 100 µM | > 100 µM | > 100 µM | > 100 µM | > 100 µM | > 100 µM | > 100 µM |  |  |  |  |  |  |  |  |  |  |
| C[C@@H]1CC[C@@]2(C)[C@H](C)/C(=C\COC(=O)/C=C/c3ccc(O)c(O)c3)CC[C@@]12C | 35 µM | 26.1 µM | 13.5 µM | 25.4 µM | 23.4 µM | 23.1 µM | 14 µM | 16.1 µM | 28.8 µM | 16.6 µM |  |  |  |  |  |  |  |  |  |  |
| CCN(CC)CCSc1c(C(C)=O)c(=O)n(-c2ccccc2)c(=S)n1-c1ccccc1 | 53.2 µM | 4.12 µM | 50.1 µM | 31.6 µM | 10 µM | 33.2 µM | 6.09 µM | 8.86 µM | 45.3 µM | 10.1 µM |  |  |  |  |  |  |  |  |  |  |
| CN1CCc2c(sc3ncn(Nc4ccc(F)cc4)c(=N)c23)C1 | > 100 µM | > 100 µM | > 100 µM | > 100 µM | > 100 µM | > 100 µM | > 100 µM | > 100 µM | > 100 µM | > 100 µM |  |  |  |  |  |  |  |  |  |  |
| O=C1c2ccccc2C(=O)N1NC1=NCCN1 | > 100 µM | > 100 µM | > 100 µM | > 100 µM | > 100 µM | > 100 µM | > 100 µM | > 100 µM | > 100 µM | > 100 µM |  |  |  |  |  |  |  |  |  |  |
| OC(Cc1cc(CC(O)(C(F)(F)F)C(F)(F)F)nc(CC(O)(C(F)(F)F)C(F)(F)F)c1)(C(F)(F)F)C(F)(F)F | > 10 µM | 8.25 µM | 1.81 µM | 4.31 µM | 7.09 µM | 2.65 µM | 2.76 µM | 3.95 µM | 3.63 µM | > 10 µM |  |  |  |  |  |  |  |  |  |  |
| c1cc(CSc2ncnc3nc[nH]c23)ccn1 | > 100 µM | > 100 µM | > 100 µM | > 100 µM | > 100 µM | > 100 µM | > 100 µM | > 100 µM | > 100 µM | > 100 µM |  |  |  |  |  |  |  |  |  |  |
| COc1cc(C(c2ccc3c(c2)OCO3)C2SCCCS2)cc(OC)c1OC (stereo not given) | 66.2 µM | 95.5 µM | 2.92 µM | > 100 µM | 8.59 µM | 51.8 µM | 10.6 µM | 6.58 µM | > 100 µM | > 100 µM |  |  |  |  |  |  |  |  |  |  |
| CCCCCCc1cc2cc(C(=O)Nc3cccc(F)c3)c(=N)oc2cc1O | 48.6 µM | 11.3 µM | > 100 µM | 5.44 µM | 12.2 µM | 5.06 µM | 11.1 µM | 5.87 µM | 17.7 µM | > 100 µM |  |  |  |  |  |  |  |  |  |  |
| CON[N+]([O-])=NC(C)C | > 100 µM | > 100 µM | > 100 µM | > 100 µM | > 100 µM | > 100 µM | > 100 µM | > 100 µM | > 100 µM | > 100 µM |  |  |  |  |  |  |  |  |  |  |
| CC1(C)[C@H]2Cc3cc4nc5ccccn5c4cc3[C@@H]1C2 | 30.8 µM | 38.2 µM | 38.8 µM | 32 µM | 41 µM | 32.4 µM | 33 µM | 35 µM | 39.7 µM | 34.2 µM |  |  |  |  |  |  |  |  |  |  |
| C=C(C)CCC(O)[C@](C)(O)[C@H]1[C@H](O)C[C@@]2(C)[C@@H]3CCc4c(cc(OC5OC(CO)C(O)C(O)C5O)c(O)c4C)C3(C)C(=O)C[C@]12C (stereo not given in full) | > 100 µM | > 100 µM | > 100 µM | > 100 µM | > 100 µM | > 100 µM | > 100 µM | > 100 µM | > 100 µM | > 100 µM |  |  |  |  |  |  |  |  |  |  |
| COC(=O)[C@H](Cc1ccccc1)NC(=O)N(CCNC(=O)OC(C)(C)C)c1ccccc1 | > 100 µM | > 100 µM | > 100 µM | > 100 µM | > 100 µM | > 100 µM | > 100 µM | > 100 µM | > 100 µM | > 100 µM |  |  |  |  |  |  |  |  |  |  |
| c1ccc2c(c1)-c1ccccc1C2NC1=NCCO1 | > 100 µM | 32.5 µM | 27.1 µM | 39.5 µM | > 100 µM | > 100 µM | 32.1 µM | 21.3 µM | 46.5 µM | > 100 µM |  |  |  |  |  |  |  |  |  |  |
| CC/C=C\C=C/C(=O)N/C=C/CCC | > 100 µM | > 100 µM | > 100 µM | > 100 µM | > 100 µM | > 100 µM | > 100 µM | > 100 µM | > 100 µM | > 100 µM |  |  |  |  |  |  |  |  |  |  |
| S=C(S)NCCN1CCNCC1 | > 100 µM | > 100 µM | > 100 µM | > 100 µM | > 100 µM | > 100 µM | > 100 µM | > 100 µM | > 100 µM | > 100 µM |  |  |  |  |  |  |  |  |  |  |
| COc1cc(N(CCCl)CCCl)ccc1/C=N\NC(=O)c1cccnc1 | 60.1 µM | > 100 µM | 25.4 µM | 62 µM | > 100 µM | > 100 µM | > 100 µM | > 100 µM | > 100 µM | > 100 µM | 8.34 µM | 37.5 µM | 403 nM | 28 µM | 24.6 µM | 26.7 µM | 26 µM | 27.2 µM | 34.9 µM | 17 µM |
